From ChEMBL document CHEMBL3808339, “Identification, synthesis and evaluation of SARS-CoV and MERS-CoV 3C-like protease inhibitors” (Bioorg Med Chem, 2016)

Target: Replicase polyprotein 1ab (Severe acute respiratory syndrome-related coronavirus, UniProt P0C6X7)

Point of comparison: `O=C(O)c1ccccc1-c1ccc(/C=C2\C(=O)N(c3ccccc3)N=C2c2ccccc2)o1`, IC50 41.2 µM. Against it:
- CC(C)(C)c1ccc(N2N=C(c3ccccc3)/C(=C/c3ccc(-c4cc(Cl)ccc4C(=O)O)o3)C2=O)cc1 — 7.1-fold lower, 5.8 µM
- O=C(O)c1ccc(Cl)cc1-c1ccc(/C=C2\C(=O)N(c3ccc(F)cc3)N=C2c2ccccc2)o1 — 2-fold lower, 20.2 µM
- O=C(O)c1cccc(N2N=C(c3ccccc3)/C(=C/c3ccc(-c4cc(Cl)ccc4C(=O)O)o3)C2=O)c1 — within 1.5-fold, 44.7 µM
- COc1ccc(N2N=C(c3ccccc3)/C(=C/c3ccc(-c4ccccc4C(=O)O)o3)C2=O)cc1 — within 1.5-fold, 30.7 µM
- CC1=NN(c2cccc(C(=O)O)c2)C(=O)/C1=C\c1ccc(-c2ccccc2)o1 — higher, > 50 µM
- N#Cc1ccc(N2N=C(c3ccccc3)/C(=C/c3ccc(-c4ccccc4C(=O)O)o3)C2=O)cc1 — 2.2-fold lower, 18.7 µM
- CC(C)c1ccc(N2N=C(c3ccccc3)/C(=C/c3ccc(-c4ccccc4C(=O)O)o3)C2=O)cc1 — 3.5-fold lower, 11.7 µM
- CC(C)(C)c1ccc(N2N=C(c3ccccc3)/C(=C/c3ccc(-c4ccccc4C(=O)O)o3)C2=O)cc1 — 4.8-fold lower, 8.6 µM
- O=C(O)c1cccc(N2N=C(c3ccccc3)/C(=C/c3ccco3)C2=O)c1 — higher, > 50 µM
- O=C(O)c1cccc(N2N=C(c3ccccc3)/C(=C/c3ccc(-c4ccccc4)o3)C2=O)c1 — 6.4-fold lower, 6.4 µM
- CC1=NN(c2ccccc2)C(=O)/C1=C\c1ccc(-c2cc(Cl)ccc2C(=O)O)o1 — higher, > 50 µM
- O=C1/C(=C\c2ccc(-c3ccccc3)o2)C(c2ccccc2)=NN1c1ccccc1 — higher, > 50 µM
- O=C(O)c1cccc(N2N=C(C(F)(F)F)/C(=C/c3ccc(-c4cc(Cl)ccc4C(=O)O)o3)C2=O)c1 — higher, > 50 µM
- O=C(O)c1ccccc1-c1ccc(/C=C2\C(=O)N(c3ccc(F)cc3)N=C2c2ccccc2)o1 — within 1.5-fold, 37.5 µM
- O=C(O)c1ccc(Cl)cc1-c1ccc(/C=C2\C(=O)N(c3ccccc3)N=C2c2ccccc2)o1 — 2.5-fold lower, 16.4 µM
- CC1=NN(c2cccc(C(=O)O)c2)C(=O)/C1=C\c1ccc(-c2cc(Cl)ccc2C(=O)O)o1 — higher, > 50 µM

Target: Neuraminidase (Influenza A virus, UniProt B4URF0)
Test: Inhibition of Influenza A virus H5N1 neuraminidase preincubated for 10 mins followed by addition of 2'-(4-methylumbelliferyl)-alpha-D-N-acetylneuraminic acid as fluorogenic substrate measured after 15 mins by fluorescence analysis

Sequence of Neuraminidase (B4URF0 whole entry): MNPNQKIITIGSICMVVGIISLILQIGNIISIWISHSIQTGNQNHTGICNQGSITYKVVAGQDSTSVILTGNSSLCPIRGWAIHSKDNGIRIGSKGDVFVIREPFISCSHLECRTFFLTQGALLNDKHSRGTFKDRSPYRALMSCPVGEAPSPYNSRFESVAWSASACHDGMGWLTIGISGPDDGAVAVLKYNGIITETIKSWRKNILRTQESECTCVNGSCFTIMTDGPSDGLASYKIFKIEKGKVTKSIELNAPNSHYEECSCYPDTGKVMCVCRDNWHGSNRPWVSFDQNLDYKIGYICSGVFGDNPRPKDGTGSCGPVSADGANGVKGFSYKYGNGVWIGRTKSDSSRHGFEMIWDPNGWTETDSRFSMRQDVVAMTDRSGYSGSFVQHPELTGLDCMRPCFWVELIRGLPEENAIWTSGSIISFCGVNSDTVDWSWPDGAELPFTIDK

Point of comparison: `O=C(O)c1ccc(Cl)cc1-c1ccc(/C=C2\C(=O)N(c3ccccc3)N=C2c2ccccc2)o1`, IC50 2.8 µM. Against it:
- O=C(O)c1ccc(Cl)cc1-c1ccc(/C=C2\C(=O)N(c3ccc(F)cc3)N=C2c2ccccc2)o1 — within 1.5-fold, 2.9 µM
- O=C(O)c1ccccc1-c1ccc(/C=C2\C(=O)N(c3ccccc3)N=C2c2ccccc2)o1 — 4.9-fold higher, 13.7 µM
